Results reported in patent US20060258003A1, “Culture medium composition, culture method, and myoblasts obtained, and their uses” (CELOGOS, priority 2002, published 2006).

Assays:
[1] = test system: human muscle cells; experiment: Effect of Hepes buffer on long-term growth of human muscle cells; assay type: cell-based; settings: 15 mM in culture medium
[2] = test system: rat adipocyte cells; experiment: Cell test predictive of muscle toxicity, rat adipocyte cells; settings: 0.5 μM; 2 days culture
[3] = test system: human muscle cells; experiment: Toxicity of commercial statins on human muscle cells; assay type: cell-based; settings: 0-1 μM; FIG. 4; total culture time 5 days
Description: These experiments were reproduced with human muscle cells in order to test the toxicity of the commercial statins.
The experimentation procedure is as follows.
On day 1 the media are changed. On day 3 staining is carried out.
The total culture time is 5 days.
After aspiration of the culture medium, the cells are washed with PBS then fixed with 100% ethanol. 10 minutes later the cells are washed with water then stained with a solution of 10% Giemsa for 10 minutes. The final step is washing with water.
Images of the cells are obtained with an inverted microscope (Nikon) equipped with a digital camera and a motorized stage.

[4] = compared with other statins; cited from earlier work

O=S(=O)(O)CCN1CCN(CCO)CC1 [Hepes]
growth of human muscle cells in the long term [1]: inhibits the growth

CC[C@H](C)C(=O)O[C@H]1C[C@@H](C)C=C2C=C[C@H](C)[C@H](CC[C@@H]3C[C@@H](O)CC(=O)O3)[C@H]21 [Lovastatin]
sensitivity of adipocyte cells [2]: insensitive

COCc1c(C(C)C)nc(C(C)C)c(/C=C/[C@@H](O)C[C@@H](O)CC(=O)O)c1-c1ccc(F)cc1 [Cerivastatin]
toxicity on human muscle cells [3]: high toxicity
toxicity in human clinical use [4]: most toxic statin
